According to ChEMBL document CHEMBL5335837, “Reinvestigation of diphenylmethylpiperazine analogues of pyrazine as new class of Plasmodial cysteine protease inhibitors for the treatment of malaria” (RSC Med Chem, 2024):
Calls of active or inactive are those of the source. The rule behind the calls is not given here.

test system: not listed separately; assay: Selectivity index, ratio of IC50 for cytotoxicity against african green monkey vero cells to IC50 for cytotoxicity against human A549 cells; settings: not given

Compared with `Oc1ccccc1C(c1ccc(Cl)c(Cl)c1)N1CCN(c2cnccn2)CC1` (centres undefined), `COc1cccc(C(c2ccc(OC(F)(F)F)cc2)N2CCN(c3cnccn3)CC2)c1O` (centres undefined) is higher in “Ratio IC50” value: 16.29 for the first, 21.23 for the second.

biological target: T1, Falcipain-3 (Plasmodium falciparum 3D7, UniProt Q8IIL0); assay: Inhibition of Plasmodium falciparum FP3 using Z-Leu-Arg-AMC as substrate incubated for 30 mins by spectrofluorometry analysis; settings: not given
T1 sequence (Q8IIL0 whole entry): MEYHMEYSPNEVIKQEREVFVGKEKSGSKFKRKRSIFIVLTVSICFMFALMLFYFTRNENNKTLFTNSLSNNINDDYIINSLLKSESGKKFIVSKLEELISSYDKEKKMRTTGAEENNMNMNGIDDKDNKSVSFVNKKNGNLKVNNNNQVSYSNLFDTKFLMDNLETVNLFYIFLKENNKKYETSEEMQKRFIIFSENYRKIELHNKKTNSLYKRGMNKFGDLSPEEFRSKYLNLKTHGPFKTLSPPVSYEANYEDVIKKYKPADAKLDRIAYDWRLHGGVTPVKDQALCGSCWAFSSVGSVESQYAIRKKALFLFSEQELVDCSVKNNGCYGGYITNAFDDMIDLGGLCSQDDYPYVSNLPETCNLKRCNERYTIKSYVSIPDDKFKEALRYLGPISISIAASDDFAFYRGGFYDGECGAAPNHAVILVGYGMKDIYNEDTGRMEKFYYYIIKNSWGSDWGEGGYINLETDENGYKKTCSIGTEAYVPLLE

Going from `Oc1ccccc1C(c1ccc(Cl)c(Cl)c1)N1CCN(c2cnccn2)CC1` (centres undefined) to `COc1cccc(C(c2ccc(OC(F)(F)F)cc2)N2CCN(c3cnccn3)CC2)c1O` (centres undefined), the IC50 rises from 6.9 µM to 14.4 µM (2.1-fold).

Work on `CC(C)C[C@H](NC(=O)[C@H]1O[C@@H]1C(=O)O)C(=O)NCCCCN=C(N)N` [E-64] yielded an IC50 of 0.116 µM.

test system: not listed separately; assay: Selectivity index, ratio of IC50 for cytotoxicity against african green monkey vero cells to IC50 for antimalarial activity against Plasmodium falciparum 3D7; type: toxicity, cell-based; settings: read-out: Ratio IC50

Going from `Oc1ccccc1C(c1ccc(Cl)c(Cl)c1)N1CCN(c2cnccn2)CC1` (centres undefined) to `COc1cccc(C(c2ccc(OC(F)(F)F)cc2)N2CCN(c3cnccn3)CC2)c1O` (centres undefined), the selectivity ratio falls from 356 to 286.

test system: Plasmodium falciparum; assay: Antimalarial activity against Plasmodium falciparum W2 assessed as reduction in parasite growth incubated for 48 to 50 hrs by microplate reader analysis; type: functional, organism-based; settings: not given

Going from `Oc1ccccc1C(c1ccc(Cl)c(Cl)c1)N1CCN(c2cnccn2)CC1` (centres undefined) to `COc1cccc(C(c2ccc(OC(F)(F)F)cc2)N2CCN(c3cnccn3)CC2)c1O` (centres undefined), the IC50 falls from 4.1 µM to 2.18 µM (1.9-fold). The second is the more potent here.

test system: Plasmodium falciparum; assay: Resistance index, ratio of IC50 for antimalarial activity against Plasmodium falciparum 3D7 to IC50 for antimalarial activity against Plasmodium falciparum W2; type: functional; settings: not given

Going from `Oc1ccccc1C(c1ccc(Cl)c(Cl)c1)N1CCN(c2cnccn2)CC1` (centres undefined) to `COc1cccc(C(c2ccc(OC(F)(F)F)cc2)N2CCN(c3cnccn3)CC2)c1O` (centres undefined), the Ratio IC50 rises from 0.68 to 1.6.

test system: Plasmodium falciparum; assay: Antimalarial activity against Plasmodium falciparum 3D7 assessed as reduction in parasite growth incubated for 48 to 50 hrs by microplate reader analysis; type: functional, organism-based; settings: not given

For `Oc1ccccc1C(c1ccc(F)cc1)N1CCN(c2cnccn2)CC1` (centres undefined), the IC50 was “Not Determined(Insoluble)”.

same assay, conditions: Plasmodium falciparum, 3D7; read-out: IC50

`Cc1ccc(C(c2ccccc2O)N2CCN(c3cnccn3)CC2)cc1` (centres undefined) and `Oc1ccccc1C(c1ccc(Cl)c(Cl)c1)N1CCN(c2cnccn2)CC1` (centres undefined) are within 1.5-fold of each other in IC50: 3.76 µM for the first, 2.81 µM for the second.

For `COc1cccc(C(c2ccc(OC(F)(F)F)cc2)N2CCN(c3cnccn3)CC2)c1O` (centres undefined), the IC50 was 3.5 µM.

test system: A549; assay: Anticancer activity against human A549 cells measured after 24 hrs by MTT assay; type: functional, cell-based; settings: A549, 24 h

`Oc1ccccc1C(c1ccc(Cl)c(Cl)c1)N1CCN(c2cnccn2)CC1` (centres undefined) and `COc1cccc(C(c2ccc(OC(F)(F)F)cc2)N2CCN(c3cnccn3)CC2)c1O` (centres undefined) are within 1.5-fold of each other in IC50: 61.4 µM for the first, 47.1 µM for the second.

test system: Erythrocyte; assay: Hemolytic activity in human RBCs at 100 uM incubated for 2 hrs by microplate reader analysis; type: toxicity, cell-based; settings: not given

For `Cc1ccc(C(c2ccccc2O)N2CCN(c3cnccn3)CC2)cc1` (centres undefined), the Activity was “Non-Toxic”.
In the case of `Oc1ccccc1C(c1ccc(F)cc1)N1CCN(c2cnccn2)CC1` (centres undefined), the Activity is reported as “Non-Toxic”.
With `Oc1ccccc1C(c1ccc(Cl)c(Cl)c1)N1CCN(c2cnccn2)CC1` (centres undefined) the Activity was “Non-Toxic”.
With `COc1cccc(C(c2ccc(OC(F)(F)F)cc2)N2CCN(c3cnccn3)CC2)c1O` (centres undefined) the Activity was “Non-Toxic”.

test system: Plasmodium falciparum; assay: Antimalarial activity against Plasmodium falciparum 3D7 assessed as decrease in development of early trophozoite stage at 3 times IC50 incubated for 48 hrs by Geimsa staining based analysis; type: functional, organism-based; settings: not given

With `Oc1ccccc1C(c1ccc(Cl)c(Cl)c1)N1CCN(c2cnccn2)CC1` (centres undefined) the Activity was “Active”.

test system: not listed separately; assay: Selectivity index, ratio of IC50 for cytotoxicity against human A549 cells to IC50 for antimalarial activity against Plasmodium falciparum 3D7; type: toxicity, cell-based; settings: read-out: Ratio IC50

First: Oc1ccccc1C(c1ccc(Cl)c(Cl)c1)N1CCN(c2cnccn2)CC1 (centres undefined)
Second: COc1cccc(C(c2ccc(OC(F)(F)F)cc2)N2CCN(c3cnccn3)CC2)c1O (centres undefined)
The selectivity ratio of the first is higher: 21.9 for the first, 13.5 for the second.

test system: not listed separately; assay: Selectivity index, ratio of IC50 for cytotoxicity against human A549 cells to IC50 for antimalarial activity against Plasmodium falciparum W2; type: toxicity, cell-based; settings: read-out: Ratio IC50

First: Oc1ccccc1C(c1ccc(Cl)c(Cl)c1)N1CCN(c2cnccn2)CC1 (centres undefined)
Second: COc1cccc(C(c2ccc(OC(F)(F)F)cc2)N2CCN(c3cnccn3)CC2)c1O (centres undefined)
The selectivity ratio of the first is lower: 15 for the first, 21.6 for the second.

biological target: T2, Falcipain 2 (Plasmodium falciparum, UniProt Q9N6S8); assay: Inhibition of Plasmodium falciparum FP2 using Z-Leu-Arg-AMC as substrate incubated for 30 mins by spectrofluorometry analysis; settings: not given
T2 sequence (Q9N6S8 whole entry): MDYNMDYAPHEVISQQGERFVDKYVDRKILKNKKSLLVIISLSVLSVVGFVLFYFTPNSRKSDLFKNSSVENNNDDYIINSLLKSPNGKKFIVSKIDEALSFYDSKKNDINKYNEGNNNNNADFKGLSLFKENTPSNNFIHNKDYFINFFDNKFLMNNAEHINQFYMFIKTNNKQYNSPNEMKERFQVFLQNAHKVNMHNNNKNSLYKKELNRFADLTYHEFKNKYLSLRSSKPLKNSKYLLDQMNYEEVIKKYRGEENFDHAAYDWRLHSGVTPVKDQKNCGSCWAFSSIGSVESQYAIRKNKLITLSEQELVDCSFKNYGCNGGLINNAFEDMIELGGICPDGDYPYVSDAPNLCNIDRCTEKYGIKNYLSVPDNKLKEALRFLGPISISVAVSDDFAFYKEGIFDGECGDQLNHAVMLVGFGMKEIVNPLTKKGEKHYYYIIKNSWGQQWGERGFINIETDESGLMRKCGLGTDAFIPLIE

First: Oc1ccccc1C(c1ccc(Cl)c(Cl)c1)N1CCN(c2cnccn2)CC1 (centres undefined)
Second: COc1cccc(C(c2ccc(OC(F)(F)F)cc2)N2CCN(c3cnccn3)CC2)c1O (centres undefined)
The IC50 of the first is 1.7-fold lower: 6.6 µM for the first, 11.4 µM for the second.

`CC(C)C[C@H](NC(=O)[C@H]1O[C@@H]1C(=O)O)C(=O)NCCCCN=C(N)N` [E-64] showed an IC50 of 0.0544 µM.

test system: Vero; assay: Cytotoxicity against african green monkey Vero cells upto 1000 uM measured after 72 hrs by MTT assay; type: toxicity, cell-based; settings: chlorocebus sabaeus

With `Oc1ccccc1C(c1ccc(Cl)c(Cl)c1)N1CCN(c2cnccn2)CC1` (centres undefined) the Activity was “Non-Toxic”.
For `COc1cccc(C(c2ccc(OC(F)(F)F)cc2)N2CCN(c3cnccn3)CC2)c1O` (centres undefined), the Activity was “Non-Toxic”.

test system: Plasmodium falciparum; assay: Antimalarial activity against Plasmodium falciparum 3D7 assessed as decrease in new ring formation at 3 times IC50 concentration incubated for 48 hrs by Geimsa staining based analysis; type: functional, organism-based; settings: not given

In the case of `Oc1ccccc1C(c1ccc(Cl)c(Cl)c1)N1CCN(c2cnccn2)CC1` (centres undefined), the Activity is reported as “Active”.

test system: not listed separately; assay: Selectivity index, ratio of IC50 for cytotoxicity against african green monkey vero cells to IC50 for antimalarial activity against Plasmodium falciparum W2; type: toxicity, cell-based; settings: read-out: Ratio IC50

Going from `Oc1ccccc1C(c1ccc(Cl)c(Cl)c1)N1CCN(c2cnccn2)CC1` (centres undefined) to `COc1cccc(C(c2ccc(OC(F)(F)F)cc2)N2CCN(c3cnccn3)CC2)c1O` (centres undefined), the selectivity ratio rises from 244 to 459.
